From ChEMBL document CHEMBL1201862, “PubChem BioAssay data set” (2004)
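Compound exposure: 48 hours, 5 concentrations, 96-well plates. GI50 = concentration required for 50% inhibition of growth.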 The source made the active and inactive calls. No stated cut-off is given here; in the data, active = GI50 up to about 1.1 µM and inactive = higher.

Legend:
Assay in all cases: DTP human tumour cell line panel, 48 h
SF-295 = test system: SF-295
TK-10 = test system: TK-10
NCI-H23 = test system: NCI-H23
CCRF-CEM = test system: CCRF-CEM
UO-31 = test system: UO-31
OVCAR-8 = test system: OVCAR-8
SK-MEL-28 = test system: SK-MEL-28
SK-OV-3 = test system: SK-OV-3
HCT-116 = test system: HCT-116
SNB-19 = test system: SNB-19
MDA-MB-231 = test system: MDA-MB-231
SR = test system: SR
Malme-3M = test system: Malme-3M
786-0 = test system: 786-0
MOLT-4 = test system: MOLT-4
NCI-H460 = test system: NCI-H460
OVCAR-4 = test system: OVCAR-4
HCC 2998 = test system: HCC 2998

SMILES	GI50 (SF-295)	GI50 (TK-10)	GI50 (NCI-H23)	GI50 (CCRF-CEM)	GI50 (UO-31)	GI50 (OVCAR-8)	GI50 (SK-MEL-28)	GI50 (SK-OV-3)	GI50 (HCT-116)	GI50 (SNB-19)	GI50 (MDA-MB-231)	GI50 (SR)	GI50 (Malme-3M)	GI50 (786-0)	GI50 (MOLT-4)	GI50 (NCI-H460)	GI50 (OVCAR-4)	GI50 (HCC 2998)
O=C(O)c1c(-c2nccc3ccccc23)[nH]c(-c2ccccc2)c1S(=O)(=O)O	> 100 µM (inactive)	> 100 µM (inactive)	> 100 µM (inactive)	> 100 µM (inactive)	> 100 µM (inactive)	> 100 µM (inactive)	> 100 µM (inactive)	> 100 µM (inactive)	> 100 µM (inactive)	> 100 µM (inactive)	> 100 µM (inactive)	> 100 µM (inactive)	> 100 µM (inactive)	> 100 µM (inactive)	47.6 µM (inactive)	> 100 µM (inactive)	> 100 µM (inactive)	
Nc1c(Cl)ncnc1NCC1(CO)CCC1	> 100 µM (inactive)	> 100 µM (inactive)	> 100 µM (inactive)	> 100 µM (inactive)	> 100 µM (inactive)	> 100 µM (inactive)	> 100 µM (inactive)		> 100 µM (inactive)		> 100 µM (inactive)	> 100 µM (inactive)	> 100 µM (inactive)	> 100 µM (inactive)	> 100 µM (inactive)	> 100 µM (inactive)	> 100 µM (inactive)	
O=C1CCC(=O)N1n1c(Cc2ccc(Cl)cc2)n[nH]c1=O	> 100 µM (inactive)	> 100 µM (inactive)	> 100 µM (inactive)		> 100 µM (inactive)	> 100 µM (inactive)	> 100 µM (inactive)	> 100 µM (inactive)	> 100 µM (inactive)	> 100 µM (inactive)	> 100 µM (inactive)		> 100 µM (inactive)	> 100 µM (inactive)	> 100 µM (inactive)	> 100 µM (inactive)	> 100 µM (inactive)	> 100 µM (inactive)
CCOC(=O)C1=C(C)NC(C)=C(C(=O)OCC)C1c1ccc(Cl)cc1	12.7 µM (inactive)	14.8 µM (inactive)	14.4 µM (inactive)	1.43 µM (inactive)	20.3 µM (inactive)	16.1 µM (inactive)	20.4 µM (inactive)	16.7 µM (inactive)	9.14 µM (inactive)	16.7 µM (inactive)	15.3 µM (inactive)		18.1 µM (inactive)	13 µM (inactive)	6.1 µM (inactive)	4.6 µM (inactive)	12.5 µM (inactive)	14.7 µM (inactive)
O=[N+]([O-])c1cc(Cl)cc2c1nc(NCCO)c1ccccc12	13.1 µM (inactive)	10.8 µM (inactive)	9.75 µM (inactive)	16.7 µM (inactive)	24.1 µM (inactive)	16.3 µM (inactive)	39.5 µM (inactive)	29.1 µM (inactive)	4.78 µM (inactive)	16.1 µM (inactive)	21.1 µM (inactive)	0.653 µM (active)	12.3 µM (inactive)	6.81 µM (inactive)	3.78 µM (inactive)	2.58 µM (inactive)	13.5 µM (inactive)	
c1csc(-c2ccc(-c3cccs3)c3nsnc23)c1	42.3 µM (inactive)	7.64 µM (inactive)	22 µM (inactive)	8.32 µM (inactive)	43.4 µM (inactive)	19.7 µM (inactive)	20.2 µM (inactive)	> 49.7 µM (inactive)	19.8 µM (inactive)	> 90.8 µM (inactive)	22.4 µM (inactive)	6.47 µM (inactive)	> 39.1 µM (inactive)	22.8 µM (inactive)	8.89 µM (inactive)	21.1 µM (inactive)	0.608 µM (active)	
C(=C\c1cc[n+](CCc2ccccc2)cc1)/c1ccccc1	24.9 µM (inactive)	21.5 µM (inactive)	12.5 µM (inactive)	13.4 µM (inactive)	> 100 µM (inactive)	3.86 µM (inactive)	10.6 µM (inactive)	18.6 µM (inactive)	11.3 µM (inactive)	12.7 µM (inactive)	12.6 µM (inactive)		11.2 µM (inactive)	21.8 µM (inactive)	12.9 µM (inactive)	8.69 µM (inactive)	9.04 µM (inactive)	
CC(C(=O)NCNC(=O)c1ccccc1)C(=O)NCc1ccccc1 (configuration not stated)	> 100 µM (inactive)	> 100 µM (inactive)	> 100 µM (inactive)	> 100 µM (inactive)	> 100 µM (inactive)	> 100 µM (inactive)		> 100 µM (inactive)	> 100 µM (inactive)	> 100 µM (inactive)	> 100 µM (inactive)	> 100 µM (inactive)	> 100 µM (inactive)	> 100 µM (inactive)	> 100 µM (inactive)	> 100 µM (inactive)		
Cc1ccc(S(=O)(=O)Oc2nc3ccccc3nc2N(S(=O)(=O)c2ccc(C)cc2)S(=O)(=O)c2ccc(C)cc2)cc1	30.3 µM (inactive)	39.8 µM (inactive)	47.8 µM (inactive)	50.1 µM (inactive)	61.8 µM (inactive)	52.2 µM (inactive)	55.6 µM (inactive)	> 100 µM (inactive)	36.3 µM (inactive)	66.8 µM (inactive)	71.6 µM (inactive)		49.9 µM (inactive)	38.6 µM (inactive)	47.4 µM (inactive)	28.7 µM (inactive)		0.625 µM (active)
O=C(CC(C(=O)c1cccs1)c1ccsc1)c1ccco1 (configuration not stated)	39.7 µM (inactive)	32.4 µM (inactive)	19.5 µM (inactive)	19.1 µM (inactive)	21.2 µM (inactive)	32.3 µM (inactive)	17.1 µM (inactive)	41.3 µM (inactive)	21.2 µM (inactive)			41.8 µM (inactive)		33.7 µM (inactive)	> 100 µM (inactive)	24.2 µM (inactive)		36 µM (inactive)
Cc1ccccc1Nc1cn(COCc2ccccc2)c(=O)[nH]c1=O	> 100 µM (inactive)		56.5 µM (inactive)	91.6 µM (inactive)	52.4 µM (inactive)		> 100 µM (inactive)		49.7 µM (inactive)	> 100 µM (inactive)				> 100 µM (inactive)	55.2 µM (inactive)	69.5 µM (inactive)	39.5 µM (inactive)	> 100 µM (inactive)
O=c1c(C(c2ccc3c(c2)Cc2ccccc2-3)c2c(O)oc3ccccc3c2=O)c(O)oc2ccccc12	25.2 µM (inactive)	56.5 µM (inactive)	29.4 µM (inactive)	40.4 µM (inactive)	16.7 µM (inactive)	> 100 µM (inactive)	22.5 µM (inactive)	31.3 µM (inactive)	35.6 µM (inactive)	47.1 µM (inactive)	28.2 µM (inactive)		26.2 µM (inactive)	25.9 µM (inactive)	40.6 µM (inactive)	25.9 µM (inactive)	31.8 µM (inactive)	18.7 µM (inactive)
Cn1c2c3ccccc3nc-2c(O)c2ccccc21 [HYDROXYCRYPTOLEPINE]	> 100 µM (inactive)	> 100 µM (inactive)	> 100 µM (inactive)	90.6 µM (inactive)	> 100 µM (inactive)	> 100 µM (inactive)	6.52 µM (inactive)	> 100 µM (inactive)	49.4 µM (inactive)	> 100 µM (inactive)	85.9 µM (inactive)		> 100 µM (inactive)	> 100 µM (inactive)	27.7 µM (inactive)	59.2 µM (inactive)	54.1 µM (inactive)	> 100 µM (inactive)
c1ccc2c(c1)CCN(C1=NCCO1)C2	> 10 µM (inactive)	> 10 µM (inactive)	> 10 µM (inactive)	> 10 µM (inactive)	> 10 µM (inactive)	> 10 µM (inactive)	> 10 µM (inactive)	> 10 µM (inactive)	> 10 µM (inactive)	> 10 µM (inactive)	> 10 µM (inactive)		> 10 µM (inactive)	> 10 µM (inactive)	> 10 µM (inactive)	> 10 µM (inactive)	> 10 µM (inactive)	> 10 µM (inactive)
Cc1ccc2c(/C=C/c3ccc(N(C)C)cc3)ccnc2c1C	22.4 µM (inactive)	16.2 µM (inactive)	55.3 µM (inactive)	32.9 µM (inactive)	19.3 µM (inactive)	24.7 µM (inactive)	17.1 µM (inactive)	31.1 µM (inactive)	25.2 µM (inactive)	> 100 µM (inactive)	16.6 µM (inactive)		12.6 µM (inactive)	27.4 µM (inactive)	38.6 µM (inactive)	25.6 µM (inactive)		27.9 µM (inactive)
CC[N+]1(C)CCC(O)(c2ccc(Cl)c(Cl)c2)C(C(=O)c2ccc(Cl)c(Cl)c2)C1 (configuration not stated)	> 10 µM (inactive)	> 10 µM (inactive)	> 10 µM (inactive)	2.61 µM (inactive)	> 10 µM (inactive)	> 10 µM (inactive)	> 10 µM (inactive)	> 10 µM (inactive)	> 10 µM (inactive)	> 10 µM (inactive)		> 10 µM (inactive)	> 10 µM (inactive)	> 10 µM (inactive)	> 10 µM (inactive)	> 10 µM (inactive)	> 10 µM (inactive)	> 10 µM (inactive)
COc1ccc(/C=N/n2c(Cc3ccccc3)n[nH]c2=O)cc1	39.8 µM (inactive)		94.8 µM (inactive)	> 100 µM (inactive)	> 100 µM (inactive)	> 100 µM (inactive)	> 100 µM (inactive)	> 100 µM (inactive)	> 100 µM (inactive)	70.6 µM (inactive)	22.6 µM (inactive)		> 100 µM (inactive)	> 100 µM (inactive)	> 100 µM (inactive)	> 100 µM (inactive)	> 100 µM (inactive)	> 100 µM (inactive)
